Measured values taken from the supplement of paper PMC8988213.
Where a name gives a salt, the structure may show the parent alone.

Legend:
[1] = system: ID211 patient-derived PDAC 2D line (post-FOLFIRINOX); test: normalised area under dose-response curve (viability relative to DMSO, 7 doses up to 10 µM) (fraction (AUC)); higher = less sensitive (more viability retained); conditions: 72 h; top dose: 10 µM
Outline: (§1)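 2D PDAC cells grown out from patient-derived organoids were robotically seeded in 96-well plates at 1,500–3,000 cells/well and kept overnight at 37°C in 5% CO2. Compounds from a SelleckChem library were then applied for 72 h at seven concentrations, made as a 3-fold dilution series with 10 µM as the highest. CellTiter-Glo luminescence was measured 10 min later. Viability was normalised to control wells, and the GRmetrics R package was used to derive the area under the dose-response curve.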

[2] = system: ID188 patient-derived PDAC 2D line (pre-FOLFIRINOX); test: as above; conditions: 72 h; top dose: 10 µM
Outline: as §1

Row | SMILES | normalised area under dose-response curve [1] | normalised area under dose-response curve [2]
1 | C=CC(=O)Nc1cccc(Nc2nc(Nc3ccc(OCCOC)cc3)ncc2F)c1 [Spebrutinib (CC-292, AVL-292)] | 0.888 | 0.709
2 | Nc1ccc(S(=O)(=O)NC(=O)c2ccccc2)cc1 [Sulfabenzamide] | 0.747 | 0.926
3 | CNC(=O)c1ccc2cc([C@@]3(O)CCn4cncc43)ccc2c1 [TAK-700 (Orteronel)] | 0.863 | 1
4 | CC(C)CC(CC(=O)NO)C(=O)N[C@@H](Cc1ccc2ccccc2c1)C(=O)N[C@@H](C)C(=O)NCCN (stereo not given in full) [TAPI-1] | 0.9 | 0.641
5 | CNc1cc(-c2cccc(Cl)c2Cl)nc(N)n1 [TH287] | 0.901 | 0.896
6 | Nc1nc(NC2CC2)cc(-c2cccc(Cl)c2Cl)n1 [TH588] | 0.918 | 0.914
7 | C[C@H]1CNC(=O)c2cnn3ccc(nc23)N[C@H](C)c2cc(F)ccc2O1 [TPX-0005] | 0.728 | 0.777
8 | CCN(c1cc(-c2ccc(CN3CCOCC3)cc2)cc(C(=O)NCc2c(C)cc(C)[nH]c2=O)c1C)C1CCOCC1 [Tazemetostat (EPZ-6438)] | 0.716 | 0.863
9 | CC(C)(CO)c1cc2cc(NC(=O)C3(c4ccc5c(c4)OC(F)(F)O5)CC3)c(F)cc2n1C[C@@H](O)CO [Tezacaftor(VX-661)] | 1.02 | 0.925
10 | CCCCCCCCCCCCCC(=S)NCCCC[C@H](NC(=O)OCc1ccccc1)C(=O)Nc1ccccc1 [Thiomyristoyl] | 0.787 | 0.925
11 | Cn1cncc1[C@@](N)(c1ccc(Cl)cc1)c1ccc2c(c1)c(-c1cccc(Cl)c1)cc(=O)n2C [Tipifarnib] | 0.832 | 0.913
12 | CC[C@@]1(O)C(=O)OCc2c1cc1n(c2=O)Cc2cc3c(CN(C)C)c(O)ccc3nc2-1 [Topotecan HCl] | 0.464 | 0.523
13 | Cc1cc(Nc2cc(N3CCN(C)CC3)nc(Sc3ccc(NC(=O)C4CC4)cc3)n2)n[nH]1 [Tozasertib (VX-680, MK-0457)] | 0.716 | 0.235
14 | CC1=C(/C=C/C(C)=C/C=C/C(C)=C/C(=O)O)C(C)(C)CCC1 [Tretinoin] | 0.841 | 1.12
15 | NS(=O)(=O)c1ccc(NC(=O)Nc2ccc(F)cc2)cc1 [U-104] | 0.976 | 0.94
16 | COc1cc2nc(N3CCCC3)nc(NCCCCCN3CCCC3)c2cc1OC [UNC0379] | 0.829 | 0.943
17 | O=C(c1cncc(Br)c1)N1CCC(N2CCCC2)CC1 [UNC669] | 0.946 | 0.922
18 | O=C(c1ccc(C(=O)N2CCC(N3CCCC3)CC2)c(Nc2ccccc2)c1)N1CCC(N2CCCC2)CC1 [UNC1215] | 0.951 | 0.931
19 | CCCc1cc(C)[nH]c(=O)c1CNC(=O)c1cc(-c2ccc(N3CCN(C(C)C)CC3)nc2)cc2c1cnn2C(C)C [UNC1999] | 0.786 | 0.932
20 | CNCc1ccc(-c2cc(-c3nc(-c4ccc(S(=O)(=O)C(C)C)cc4)cnc3N)on2)cc1 [VE-822] | 0.888 | 0.693
21 | C=CC(=O)N1CC/C(=C\c2ccc(F)c([N+](=O)[O-])c2)C(=O)/C(=C/c2ccc(F)c([N+](=O)[O-])c2)C1 [VLX1570] | 0.243 | 0.602
22 | CC(C)(O)CNc1ncc(-c2ccnc(Nc3ccnc(Cl)c3)n2)c(CC2CC2)n1 [VPS34-IN1] | 0.824 | 0.949
23 | Cc1cccc(-c2[nH]c(CNc3ccccc3F)nc2-c2ccc3ncnn3c2)n1 [Vactosertib (TEW-7197)] | 0.871 | 0.931

Row | SMILES | normalised area under dose-response curve [1] | normalised area under dose-response curve [2]
24 | Clc1ccc(Nc2nnc(Cc3ccncc3)c3ccccc23)cc1 [Vatalanib (PTK787) 2HCl] | 0.894 | 0.926
25 | C[C@]1(c2nc3c(C(N)=O)cccc3[nH]2)CCCN1 [Veliparib (ABT-888)] | 0.923 | 0.913
26 | CCCS(=O)(=O)Nc1ccc(F)c(C(=O)c2c[nH]c3ncc(-c4ccc(Cl)cc4)cc23)c1F [Vemurafenib (PLX4032, RG7204)] | 0.883 | 0.813
27 | CC1(C)CCC(CN2CCN(c3ccc(C(=O)NS(=O)(=O)c4ccc(NCC5CCOCC5)c([N+](=O)[O-])c4)c(Oc4cnc5[nH]ccc5c4)c3)CC2)=C(c2ccc(Cl)cc2)C1 [Venetoclax (ABT-199, GDC-0199)] | 0.887 | 0.928
28 | CC[C@]1(O)C[C@H]2CN(CCc3c([nH]c4ccccc34)[C@@](C(=O)OC)(c3cc4c(cc3OC)N(C=O)[C@H]3[C@@](O)(C(=O)OC)[C@H](OC(C)=O)[C@]5(CC)C=CCN6CC[C@]43[C@@H]65)C2)C1 [Vincristine sulfate] | 0.441 | 0.558
29 | CCC1=C[C@@H]2CN(C1)Cc1c([nH]c3ccccc13)[C@@](C(=O)OC)(c1cc3c(cc1OC)N(C)[C@H]1[C@@](O)(C(=O)OC)[C@H](OC(C)=O)[C@]4(CC)C=CCN5CC[C@]31[C@@H]54)C2 [Vinorelbine Tartrate] | 0.338 | 0.546
30 | CS(=O)(=O)c1ccc(C(=O)Nc2ccc(Cl)c(-c3ccccn3)c2)c(Cl)c1 [Vismodegib (GDC-0449)] | 0.84 | 0.926
31 | CNC(=O)c1cccc(-c2ccc3c(N4CCOC[C@@H]4C)nc(N4CCOC[C@@H]4C)nc3n2)c1 [Vistusertib (AZD2014)] | 0.765 | 0.723
32 | CC[C@@H]1C(=O)N(C)c2cnc(Nc3ccc(C(=O)N[C@H]4CC[C@H](N5CCN(CC6CC6)CC5)CC4)cc3OC)nc2N1C(C)C [Volasertib (BI 6727)] | 0.707 | 0.701
33 | COc1ccc(N(C(=O)Oc2c(C)cccc2C)c2ccnc(Nc3ccc(N4CCN(C)CC4)cc3)n2)c(OC)c1 [WH-4-023] | 0.935 | 0.929
34 | COc1ccc(-n2c(SCCCN3C(=O)c4cccc5cccc(c45)C3=O)nnc2-c2ccncc2)cc1 [WIKI4] | 0.85 | 0.837
35 | CCC(=O)Nc1cccc(Oc2nc(Nc3ccc(N4CCN(C)CC4)cc3OC)ncc2Cl)c1 [WZ4003] | 0.896 | 0.965
36 | Oc1nc(-c2ccc(C(F)(F)F)cc2)nc2c1CSCC2 [XAV-939] | 0.928 | 0.89
37 | CN1c2ccccc2C(=O)Nc2cnc(Nc3ccc(N4CCC(O)CC4)cc3)nc21 [XMD16-5] | 0.783 | 0.906
38 | COc1cc(O)c(CC=C(C)C)c(O)c1C(=O)/C=C/c1ccc(O)cc1 [Xanthohumol] | 0.926 | 0.943
39 | COCC[n+]1c2c(n(Cc3cnccn3)c1C)C(=O)c1ccccc1C2=O [YM155 (Sepantronium Bromide)] | 0.279 | 0.0409
40 | Cc1cc(C)nc(NS(=O)(=O)c2ccc(NC(=S)NC(=O)COc3ccc(Br)cc3Cl)cc2)n1 [ZCL278] | 0.777 | 0.928
41 | FC(F)c1nc2ccccc2n1-c1nc(N2CCOCC2)nc(N2CCOCC2)n1 [ZSTK474] | 0.642 | 0.712
42 | COc1nc(C)cnc1NS(=O)(=O)c1cccnc1-c1ccc(-c2nnco2)cc1 [Zibotentan (ZD4054)] | 0.955 | 0.96
43 | CC(c1cc2ccccc2s1)N(O)C(N)=O (stereo not given) [Zileuton] | 0.859 | 0.817
44 | C=CC(=O)N1C/C(=C\c2ccc([N+](=O)[O-])cc2)C(=O)/C(=C/c2ccc([N+](=O)[O-])cc2)C1 [b-AP15] | 0.671 | 0.504
45 | Cc1cc(Nc2cc(N)ncn2)c(=O)n2c1C(=O)NC21CCCCC1 [eFT-508 (eFT508)] | 1.01 | 0.977
